From patent US10501805B2, “Methods for determining responsiveness to MEK/ERK inhibitors” (CROWN BIOSCIENCE, INC. (TAICANG), priority 2014, dated 2019) come the findings set out here.

Structures are written as SMILES.

Type in all cases: cell-based
One experiment concerns NCI-H1155. The experiment can be described thus: CellTiter-Glo cell viability, IC50 determination. Particulars: Homo sapiens, 72 h; NCI-H1155 cell line; 3-day CTG assay; read-out: Absolute IC50. As to the method:
(§1) All the cells will be cultured in the media supplemented with 10% FBS except for which are marked specially, in the temperature of 37° C., 5% CO2 and 95% humidity.
(§2) Cell viability is assayed by using CellTiter-Glo® Luminescent Cell Viability Assay Kit (Cat. No.: G7572, Promega. Store at −20° C.). To prepare the CellTiter_Glo Reagent, the CellTiter-Glo Buffer was thawed and equilibrated to room temperature prior to use. For convenience the CellTiter-Glo Buffer may be thawed and stored at room temperature for up to 48 hours prior to use. The lyophilized CellTiter-Glo Substrate is equilibrated to room temperature prior to use. The appropriate volume (100 ml) of CellTiter-Glo Buffer is transferred into the amber bottle containing CellTiter-Glo Substrate to reconstitute the lyophilized enzyme/substrate mixture, which forms the CellTiter-Glo Reagent. In certain cases, the entire liquid volume of the CellTiter-Glo Buffer bottle may be added to the CellTiter-Glo Substrate vial. Mix by gently vortexing, swirling or by inverting the contents to obtain a homogeneous solution. The CellTiter-Glo Substrate should go into solution easily in less than one minute.
(§3) The day before the experiment (Day −1), cells were dissociated during the logarithmic growth period with Cell Disassociation Buffer (Gibco 13151-014) and mixed with appropriate cell media and centrifuge at 1000 rpm for 3 minutes. The cells were re-suspended and counted using Countstar before adjusting cell concentrations to optimized density (i.e. 4.44×10^4 cells/ml) with respective culture medium listed in Table 1 for 3-day CTG assay (The cell density was optimized before actual study; cell density used in the test may vary for different cell lines). 90 μl cell suspensions were added to two 96-well plates (plates A and B) with the final cell density of 4×10^3 cells/well for 3-day CTG assay (the cell density was optimized before actual study; cell density used in the test may vary for different cell lines). The plate A and B group were incubated for overnight in humidified incubator at 37° C. with 5% CO2.
(§4) On Day 0, for plate A group, 10 μl culture medium was added to each well for T0 reading. CellTiter-Glo® Reagent was added at equal volume of cell culture medium present in each well (e.g., add 100 μl of reagent to 100 μl of medium containing cells for a 96-well plate). Contents were mixed for 2 minutes on an orbital shaker to facilitate cell lysis. The plate was allowed to incubate at room temperature for 10 minutes to stabilize luminescent signal. Backseal black sticker was added to the bottom of each plate. Luminescence was recorded using EnVision Multi Label Reader. This formed the basis for T0 value.
(§5) On Day 0, the test articles and positive controls were dissolved at the concentration indicated at Test Article Dilution map. 100× solution in PBS was prepared and then diluted with appropriate culture media (1:10) into 10×working solutions. 10 μl (10×) drug solutions were dispensed in each well (triplicate for each drug concentration) of the plate B group according to plate inoculation map. The test plates were incubated for […] in the humidified incubator at 37° with 5% CO2.
(§6) On Day 3, CellTiter-Glo® Reagent was added at equal volume of cell culture medium present in each well (e.g., add 100 μl of reagent to 100 μl of medium containing cells for a 96-well plate). Contents were mixed for 2 minutes on an orbital shaker to induce cell lysis. The plate was allowed to incubate at room temperature for 10 minutes to stabilize luminescent signal. Backseal black sticker was placed to the bottom of each plate. Luminescence was recorded using EnVision Multi Label Reader.
(§7) In order to calculate IC50s, a dose-response curve was fitted using a nonlinear regression model with a sigmoidal dose response. The formula for calculating surviving rate was shown below; Absolute IC50 is calculated where Y axis set at 50% using GraphPad Prism 5.0. Software. […]
(In general: ATP-based viability assays read luminescence as a measure of living cells.)

A further experiment concerns NCI-H1299. The experiment can be described thus: CellTiter-Glo cell viability, IC50 determination. Particulars: Homo sapiens, 72 h; NCI-H1299 cell line; 3-day CTG assay; read-out: Absolute IC50. Here is the method:
as §1, §2, §3, §4, §5, §6, §7

A further experiment has as its system NCI-H1703. The experiment can be described thus: CellTiter-Glo cell viability, IC50 determination. Particulars: Homo sapiens, 72 h; NCI-H1703 cell line; 3-day CTG assay; read-out: Absolute IC50. Here is the method: as §1, §2, §3, §4, §5, §6, §7
Another experiment relates to SW480. The experiment can be described thus: CellTiter-Glo cell viability, IC50 determination. The note with it: Homo sapiens, 72 h; SW480 cell line; 3-day CTG assay; read-out: Absolute IC50. As to the method: as §1, §2, §3, §4, §5, §6, §7
For the next experiment, the system named is panel of 50 cell lines. The experiment can be described thus: Sensitivity of cell line panel by gene mutation status. The text has this:
We examined the anti-proliferation activity of a MEK inhibitor, trametinib, and an ERK1/2 inhibitor, SCH772984, in a panel of […] (see Table 1).
We divided the 63 cell lines into sensitive, insensitive, and uncertain groups according to their IC50's for SCH772984 and Trametinib, respectively, then detected genes with differential expression or different mutation types between sensitive and insensitive groups. These genes were enriched in several cancer related pathways.
The 63 cell lines were divided into 3 groups (See Table 1): a sensitive group (IC50 values were less than 1), an insensitive group (IC50 values are greater than 10), and an uncertain group (the rest). Accordingly, we got 25 sensitive and 22 insensitive cell lines for SCH772984, and 34 sensitive and 24 insensitive cell lines for Trametinib. Only cell lines with genomic data were used in subsequent analysis. The differentially expressed genes and enriched pathways were analysed using GSEA software, the genes with different mutation types were detected using Fisher's exact test.
29 sensitive and 20 insensitive cell lines have mutation information, and ADAM12, COL14A1, TNN and TP53 were identified by P-value cutoff of 0.01 (See Table 3 and FIG. 1-5).
21 sensitive and 18 insensitive cell lines have mutation information, and ADAM12, PEX5L, TNN and TP53 were identified by P-value cutoff of 0.01 (See Table 3 and FIGS. 6-10).

Another experiment has as its system Colo205. The experiment can be described thus: CellTiter-Glo cell viability, IC50 determination. Particulars: Homo sapiens, COLO 205, 72 h; Colo205 cell line; 3-day CTG assay; read-out: Absolute IC50. Here is the method:
as §1, §2, §3, §4, §5, §6, §7

The subject of another experiment is NCI-H1651. The experiment can be described thus: CellTiter-Glo cell viability, IC50 determination. The note with it: Homo sapiens, 72 h; NCI-H1651 cell line; 3-day CTG assay; read-out: Absolute IC50. As to the method: as §1, §2, §3, §4, §5, §6, §7
The next experiment deals with NCI-H2227. The experiment can be described thus: CellTiter-Glo cell viability, IC50 determination. Particulars: 72 h; NCI-H2227 cell line; 3-day CTG assay; read-out: Absolute IC50. Here is the method: as §1, §2, §3, §4, §5, §6, §7
For a further experiment, the system named is PC-3. The experiment can be described thus: CellTiter-Glo cell viability, IC50 determination. The note with it: Homo sapiens, 72 h; PC-3 cell line; 3-day CTG assay; read-out: Absolute IC50. Here is the method: as §1, §2, §3, §4, §5, §6, §7
The next experiment relates to SK-LU-1. The experiment can be described thus: CellTiter-Glo cell viability, IC50 determination. The note with it: Homo sapiens, 72 h; SK-LU-1 cell line; 3-day CTG assay; read-out: Absolute IC50. As to the method:
as §1, §2, §3, §4, §5, §6, §7

Setting [1] is: cells harboring mutations in ADAM12 gene.
[2] abbreviates: cells harboring mutations in TNN gene.
Setting [3] is: cells harboring mutations in TP53 gene.

By IC50 is commonly meant the concentration at which inhibition is half-maximal. For `CC(=O)Nc1cccc(-n2c(=O)n(C3CC3)c(=O)c3c(Nc4ccc(I)cc4F)n(C)c(=O)c(C)c32)c1` [Trametinib, N-(3-{3-Cyclopropyl-5-[(2-fluoro-4-iodophenyl)amino]-6,8-dimethyl-2,4,7-trioxo-3,4,6,7-tetrahydropyrido[4,3-d]pyrimidin-1(2H)-yl}phenyl)acetamide], the concentration for half-maximal inhibition (IC50) is 636 µM in the experiment on NCI-H1155, 0.91 µM in the experiment on NCI-H1299, 15 µM in the experiment with NCI-H1703 and 6.65 µM in the experiment with SW480. The “sensitivity to inhibitor in cells harboring mutations” value is “increased sensitivity” in the experiment on panel of 50 cell lines (cells harboring multiple mutations in ADAM12, COL14A1, TNN, and TP53 gene); “increased sensitivity” in the experiment on panel of 50 cell lines (setting [1]); “decreased sensitivity” in the experiment on panel of 50 cell lines (cells harboring mutations in COL14A1 gene); “increased sensitivity” in the experiment on panel of 50 cell lines (setting [2]); “increased sensitivity” in the experiment on panel of 50 cell lines (setting [3]).

As for `O=C(Nc1ccc2[nH]nc(-c3ccncc3)c2c1)[C@@H]1CCN(CC(=O)N2CCN(c3ccc(-c4ncccn4)cc3)CC2)C1` [SCH772984, (R)-1-(2-oxo-2-(4-(4-(pyrimidin-2-yl)phenyl)piperazin-1-yl)ethyl)-N-(3-(pyridin-4-yl)-1H-indazol-5-yl)pyrrolidine-3-carboxamide], the IC50 with Colo205 amounted to 0.04 µM; with NCI-H1651, 48.8 µM; in the experiment with NCI-H2227 it was 28.7 µM; with PC-3 it was 14.3 µM; in the experiment with SK-LU-1 it was 4.69 µM. Also, the “sensitivity to inhibitor in cells harboring mutations” value with panel of 50 cell lines (cells harboring multiple mutations in ADAM 12, PEX5L, TNN and TP53 gene) is on record as “increased sensitivity”; with panel of 50 cell lines (setting [1]), “increased sensitivity”; in the experiment on panel of 50 cell lines (cells harboring mutations in PEX5L gene), “increased sensitivity”; in the experiment on panel of 50 cell lines (setting [2]), “increased sensitivity”; in the experiment with panel of 50 cell lines (setting [3]) it was “increased sensitivity”.
